# Like-named read-outs stand apart in the source and are kept apart here.
# Assays:
# [1] = system: S. oryzae mixed-age cultures; assay: Mixed-age cultures exposed to allyl acetate in desiccators (Example 3); format: in vivo; details: Sitophilus oryzae, read-out: Mortality (%) (Mean ± SD); for mortality at 25 µg/mL: 25 mg/liter; for mortality at 50 µg/mL: 50 mg/liter; for mortality at 100 µg/mL: 100 mg/liter; for mortality at 150 µg/mL: 150 mg/liter
# Experimental: (§1) The grain/ flour containing mixed- age culture of the insect was weighted into 15 cm diameter paper plates in 50 gm aliquots and kept in 0.85 litre desiccators. A 9 cm size Whatman No.1 filter circle was placed in each desiccator to act as evaporating surface for allyl acetate when injected. The insects were exposed to 4 doses of allyl acetate i.e., 25, 50, 100 and 150 mg/liter. Allyl acetate was drawn from the bottle using 100 and 250 micro liter liquid syringes and injected into the desiccators, so that the liquid falls on the filter circle inside the desiccator. There were three replicates each for each dose and for each exposure period. […] Insects emerged from wheat (S. oryzae and R. dominica) or survived in wheat flour (T. castaneum) samples were checked at weekly intervals for 8 weeks. Similarly, counts were made in untreated control batches. Mortality in treated batches was determined by taking into account of survival/emergence in controls as 100%. […] For example, allyl acetate at 25 mg/litre with 48-hour exposure caused 99.8% kill in R. dominica whereas, 85.1 and 86.5% mortality was recorded, respectively, in S. oryzae and T. castaneum.
# [2] = system: T. castaneum mixed-age cultures; assay: as above; format: in vivo; details: Tribolium castaneum, read-out: Mortality (%) (Mean ± SD); for mortality at 25 µg/mL: 25 mg/liter; for mortality at 50 µg/mL: 50 mg/liter; for mortality at 100 µg/mL: 100 mg/liter; for mortality at 150 µg/mL: 150 mg/liter
# Experimental: as §1
# [3] = system: R. dominica mixed-age cultures; assay: as above; format: in vivo; details: Rhyzopertha dominica, read-out: Mortality (%) (Mean ± SD); for mortality at 25 µg/mL: 25 mg/liter; for mortality at 50 µg/mL: 50 mg/liter; for mortality at 100 µg/mL: 100 mg/liter; for mortality at 150 µg/mL: 150 mg/liter
# Experimental: as §1
# [4] = cited from earlier work
# rat = details: cited from earlier work
# Sitophilus oryzae [5] = assay: whole plant or invertebrate
# Experimental: (§2) Cryptolestes sp. was reared on wheat feed. S. oryzae, Cryptolestes sp. and T. castaneum cultures were maintained at 25±1° C. and 70% RH whereas R. dominica cultures were maintained at 30±1° C. and 70% RH. From the established cultures, 2-week-old adults were taken and counted into 10 cm×2.3 cm size test tubes at 50 per replicate. The mouth of the tube was closed with a cloth piece held by small rubber ring. The insects were exposed to a range of doses (10 to 100 mg/litre) of esters for 24 hours in 0.85-liter desicators at the laboratory temperature of 26±2° C. Pure grade esters including allyl acetate, butyl acetate, ethyl acetoacetate, isopropyl acetate and propyl acetate were procured from Merck India Ltd. In each desiccator a 9 cm diameter Whatman No. 1 filter circle was placed; the filter circle acted as evaporating surface for the injected liquids (esters). Required quantity of the ester was drawn from the bottles using 10, 25 or 50 micro litre liquid syringe. There were 6 replicates for each dose with equal number of replicates for untreated control. The exposure period in all cases was 24 hours. […] Insect mortality was assessed after 14 days. Corrected mortality was arrived at based on Abbott's formula (1925).
# Rhyzopertha dominica [6] = assay: whole plant or invertebrate
# Experimental: as §2
# Tribolium castaneum = assay: whole plant or invertebrate
# Experimental: as §2
# [7] = system: R. dominica mixed-age cultures; details: 200 mg/liter, 26 ± 2° C., 19.5 liter tin container with 12 kg of wheat
# Experimental: Further fumigation tests were carried out with allyl acetate at 200 mg/litre and with three different exposure periods of 24, 48 and 72 hours in 19.5 litre tin containers filled with 12 kg of wheat. Mixed- age cultures of R. dominica, S. oryzae and T. castaneum were used as the test insects.
# Mixed-age cultures of S. oryzae and R. dominica were obtained by allowing 300 adults of the individual species to breed in about 1 kg of wheat in a 2-liter glass jar. To obtain mixed- age culture of T. castaneum about 300 adults were released into 1 kg of whole-wheat flour plus 5% dried yeast in a 2-litre glass jar. The insect culture jars were kept under the rearing temperature conditions i.e., 25±1° C. for S. oryzae and T. castaneum and 30±1° C. for R. dominica. The infested grain/flour after an incubation period of 7 weeks was used for the experiment. The cultures were weighed into 50 gm aliquots in 21 cm×14 cm size cloth bags. One set of three test insect bags comprising R. dominica, S. oryzae and T. castaneum were kept at the bottom of the container before filling the grain. […] Another set of three-test insect bags was kept on the top layer of grains. The grain-filled containers were, then, fumigated with allyl acetate for 24, 48 and 72 hours at 26±2° C. The commodity was treated with allyl acetate at the dosage of 200 mg/litre. Required quantity of allyl acetate was measured in 10 and 25 ml measuring cylinder and quickly poured on to 5 gm of absorbent cotton wool kept over the grain layer in the tin container. Immediately after dosing, the container was closed with the lid tightly and sealed along the rim with adhesive tape. At the end of the exposure period, the lid was removed to aerate the commodity and the test insect bags were retrieved and the contents transferred to 300 ml capacity glass bottles. Insect survivors in the samples were recorded at weekly intervals for 8 weeks. Mortality in fumigated batches was calculated based on emergence/survivors in controls.
# Sitophilus oryzae [8] = assay: LD 50 / LD 99 of allyl acetate to adults, probit analysis (Example 2); format: in vivo; details: S. oryzae adults, 24-hour exposure at 26 ± 2° C.
# Experimental: (§3) Assays with allyl acetate against the adults of four species of stored grain insects namely S. oryzae, R. dominica, T. castaneum and Cryptolestes sp. were carried out to determine LD 50 and LD 99 doses. […] Cryptolestes sp. was reared on wheat feed. […] The insects were exposed to different doses of allyl acetate for 24 hour in 0.85-liter desiccators to yield 20-100% mortality. There were 6 replicates for each dose along with equal number of untreated control. […] Mortality of treated insects was assessed at the end of 14 days and it was corrected for natural control mortality. The data for the individual species were subjected to probit analysis following the method of Finney (1971) to arrive at LD 50 and LD 99 values.
# Rhyzopertha dominica [9] = assay: as above; format: in vivo; details: R. dominica adults, 24-hour exposure at 26 ± 2° C.
# Experimental: as §3
# [10] = Sitophilus oryzae, read-out: Mortality (%) (Mean ± SD)
# [11] = Rhyzopertha dominica, read-out: Mortality (%) (Mean ± SD)
# [12] = Tribolium castaneum, read-out: Mortality (%) (Mean ± SD)
compound,measurement,setting,value
C=CCOC(C)=O [allyl acetate],mortality at 25 µg/mL,[1]; 24 hours exposure,87.9 ± 4.1%
same,mortality at 50 µg/mL,[1]; 24 hours exposure,98 ± 1.5%
same,mortality at 100 µg/mL,[1]; 24 hours exposure,100%
same,mortality at 150 µg/mL,[1]; 24 hours exposure,100%
same,mortality at 25 µg/mL,[1]; 48 hours exposure,85.1%
same,mortality at 50 µg/mL,[1]; 48 hours exposure,98.9 ± 1.3%
same,mortality at 100 µg/mL,[1]; 48 hours exposure,100%
same,mortality at 150 µg/mL,[1]; 48 hours exposure,100%
same,mortality at 25 µg/mL,[1]; 120 hours exposure,98.8 ± 1.8%
same,mortality at 50 µg/mL,[1]; 120 hours exposure,100%
same,mortality at 100 µg/mL,[1]; 120 hours exposure,100%
same,mortality at 150 µg/mL,[1]; 120 hours exposure,100%
same,mortality at 25 µg/mL,[2]; 24 hours exposure,0%
same,mortality at 50 µg/mL,[2]; 24 hours exposure,82.6 ± 17.8%
same,mortality at 100 µg/mL,[2]; 24 hours exposure,98.4 ± 3.3%
same,mortality at 150 µg/mL,[2]; 24 hours exposure,99.2 ± 1.7%
same,mortality at 25 µg/mL,[2]; 48 hours exposure,86.5%
same,mortality at 50 µg/mL,[2]; 48 hours exposure,100%
same,mortality at 100 µg/mL,[2]; 48 hours exposure,100%
same,mortality at 150 µg/mL,[2]; 48 hours exposure,100%
same,mortality at 25 µg/mL,[2]; 120 hours exposure,51.4 ± 11.6%
same,mortality at 50 µg/mL,[2]; 120 hours exposure,73.4 ± 17.7%
same,mortality at 100 µg/mL,[2]; 120 hours exposure,97.3 ± 3.2%
same,mortality at 150 µg/mL,[2]; 120 hours exposure,100%
same,mortality at 25 µg/mL,[3]; 24 hours exposure,99.8 ± 0.3%
same,mortality at 50 µg/mL,[3]; 24 hours exposure,100%
same,mortality at 100 µg/mL,[3]; 24 hours exposure,100%
same,mortality at 150 µg/mL,[3]; 24 hours exposure,100%
same,mortality at 25 µg/mL,[3]; 48 hours exposure,99.8%
same,mortality at 50 µg/mL,[3]; 48 hours exposure,99.8 ± 0.4%
same,mortality at 100 µg/mL,[3]; 48 hours exposure,100%
same,mortality at 150 µg/mL,[3]; 48 hours exposure,100%
same,mortality at 25 µg/mL,[3]; 120 hours exposure,99.8 ± 0.5%
same,mortality at 50 µg/mL,[3]; 120 hours exposure,100%
same,mortality at 100 µg/mL,[3]; 120 hours exposure,100%
same,mortality at 150 µg/mL,[3]; 120 hours exposure,100%
same,Vapour pressure at 27° C. (mm Hg),[4]; 27° C.,6 mm Hg
same,Solubility in water,[4],Insoluble
same,LD 50 rat oral,rat,LD 50 rat oral 130 mg/kg
same,mortality at 10 µg/mL,Sitophilus oryzae [5]; [10],92.3 ± 12.7%
same,mortality at 20 µg/mL,Sitophilus oryzae [5]; [10],100%
same,mortality at 30 µg/mL,Sitophilus oryzae [5]; [10],100%
same,mortality at 50 µg/mL,Sitophilus oryzae [5]; [10],100%
same,mortality at 100 µg/mL,Sitophilus oryzae [5]; [10],100%
same,mortality of the adults,Sitophilus oryzae [5]; in vivo,100%
same,mortality at 10 µg/mL,Rhyzopertha dominica [6]; [11],100%
same,mortality at 20 µg/mL,Rhyzopertha dominica [6]; [11],100%
same,mortality at 30 µg/mL,Rhyzopertha dominica [6]; [11],100%
same,mortality at 50 µg/mL,Rhyzopertha dominica [6]; [11],100%
same,mortality at 100 µg/mL,Rhyzopertha dominica [6]; [11],100%
same,mortality of the adults,Rhyzopertha dominica [6]; in vivo,100%
same,mortality at 10 µg/mL,Tribolium castaneum; [12],96 ± 3.7%
same,mortality at 20 µg/mL,Tribolium castaneum; [12],100%
same,mortality at 30 µg/mL,Tribolium castaneum; [12],100%
same,mortality at 50 µg/mL,Tribolium castaneum; [12],100%
same,mortality at 100 µg/mL,Tribolium castaneum; [12],100%
same,mortality of the adults,Tribolium castaneum; in vivo,100%
same,% mortality based on survivors in controls,[7]; exposure period 24 hour,(100) %
same,No. of survivors from 50 g lots of mixed-age cultures following treatment,[7]; exposure period 24 hour,0
same,% mortality based on survivors in controls,[7]; exposure period 48 hour,(100) %
same,No. of survivors from 50 g lots of mixed-age cultures following treatment,[7]; exposure period 48 hour,0
same,% mortality based on survivors in controls,[7]; exposure period 72 hour,(100) %
same,No. of survivors from 50 g lots of mixed-age cultures following treatment,[7]; exposure period 72 hour,0
same,LD 50 (mg/Liter),Sitophilus oryzae [8],4.08 (3.70; 4.42) mg/Liter
same,LD 99 (mg/Liter),Sitophilus oryzae [8],12.81 (10.90; 16.15) mg/Liter
same,LD 50 (mg/Liter),Rhyzopertha dominica [9],1.69 (1.30; 2.02) mg/Liter
same,LD 99 (mg/Liter),Rhyzopertha dominica [9],7.56 (5.81; 11.67) mg/Liter

# Source: patent publication US20040191287A1, “Fumigation process for stored food grains” (priority 2003, published 2004)
